Data published in US20080171783A1, “COMPOSITIONS AND METHODS FOR TREATING HYPERPROLIFERATIVE DISEASE” (Migenix Inc., priority 2006, published 2008).

Legend:
Test in all cases: NCI In Vitro Cell Line Screening (SRB)
UO-31 = format: cell-based, human; settings: UO-31, Renal Cancer, 48 h; for GI50 / CC50: Homo sapiens; for CC50: read-out: LC50 (the source's name)
PC-3 = format: cell-based, human; settings: PC-3, Prostate Cancer, 48 h; for GI50 / CC50: Homo sapiens; for CC50: read-out: LC50 (the source's name)
SN12C = format: cell-based, human; settings: Renal Cancer, 48 h; for GI50 / CC50: Homo sapiens; for CC50: read-out: LC50 (the source's name)
MDA-MB-231/ATCC = format: cell-based, human; settings: Breast Cancer, 48 h; for GI50 / CC50: Homo sapiens; for CC50: read-out: LC50 (the source's name)
HT29 = format: cell-based; settings: HT29, Colon Cancer, 48 h; for GI50 / CC50: Homo sapiens, HT-29; for CC50: read-out: LC50 (the source's name)
HOP-62 = format: cell-based, human; settings: HOP-62, Non-Small Cell Lung Cancer, 48 h
UACC-62 = format: cell-based, human; settings: UACC-62, Melanoma, 48 h; for GI50 / CC50: Homo sapiens; for CC50: read-out: LC50 (the source's name)
MALME-3M = format: cell-based, human; settings: Melanoma, 48 h; for GI50 / CC50: Homo sapiens; for CC50: read-out: LC50 (the source's name)
BT-549 = format: cell-based, human; settings: BT-549, Breast Cancer, 48 h; for GI50 / CC50: Homo sapiens; for CC50: read-out: LC50 (the source's name)
SK-MEL-5 = format: cell-based, human; settings: SK-MEL-5, Melanoma, 48 h
M14 = format: cell-based, human; settings: M14, Melanoma, 48 h; for GI50 / CC50: Homo sapiens; for CC50: read-out: LC50 (the source's name)
IGROV1 = format: cell-based; settings: IGROV1, Ovarian Cancer, 48 h; for CC50: read-out: LC50 (the source's name)
K-562 = format: cell-based; settings: K-562, Leukemia, 48 h
HCT-116 = format: cell-based, human; settings: HCT-116, Colon Cancer, 48 h
HCT-15 = format: cell-based, human; settings: HCT-15, Colon Cancer, 48 h; for GI50 / CC50: Homo sapiens; for CC50: read-out: LC50 (the source's name)
SW-620 = format: cell-based; settings: SW-620, Colon Cancer, 48 h; for GI50 / CC50: Homo sapiens; for CC50: read-out: LC50 (the source's name)
HOP-92 = format: cell-based, human; settings: HOP-92, Non-Small Cell Lung Cancer, 48 h; for GI50 / CC50: Homo sapiens; for CC50: read-out: LC50 (the source's name)
SK-MEL-28 = format: cell-based, human; settings: SK-MEL-28, Melanoma, 48 h; for GI50 / CC50: Homo sapiens; for CC50: read-out: LC50 (the source's name)
SK-OV-3 = format: cell-based, human; settings: SK-OV-3, Ovarian Cancer, 48 h; for GI50 / CC50: Homo sapiens; for CC50: read-out: LC50 (the source's name)
CCRF-CEM = format: cell-based, human; settings: Leukemia, 48 h; for GI50 / CC50: Homo sapiens; for CC50: read-out: LC50 (the source's name)
KM12 = format: cell-based, human; settings: KM12, Colon Cancer, 48 h; for GI50 / CC50: Homo sapiens; for CC50: read-out: LC50 (the source's name)
SNB-19 = format: cell-based, human; settings: SNB-19, CNS Cancer, 48 h
MCF7 = format: cell-based, human; settings: MCF7, Breast Cancer, 48 h; for GI50 / CC50: Homo sapiens; for CC50: read-out: LC50 (the source's name)
ACHN = format: cell-based, human; settings: Renal Cancer, 48 h; for GI50 / CC50: Homo sapiens; for CC50: read-out: LC50 (the source's name)
MOLT-4 = format: cell-based, human; settings: MOLT-4, Leukemia, 48 h
OVCAR-4 = format: cell-based, human; settings: OVCAR-4, Ovarian Cancer, 48 h; for GI50 / CC50: Homo sapiens; for CC50: read-out: LC50 (the source's name)
SF-268 = format: cell-based, human; settings: SF-268, CNS Cancer, 48 h; for GI50 / LC50: Homo sapiens
TK-10 = format: cell-based, human; settings: TK-10, Renal Cancer, 48 h; for GI50 / CC50: Homo sapiens; for CC50: read-out: LC50 (the source's name)
[1] = Homo sapiens, read-out: LC50 (the source's name)

Structure (SMILES): CC(C)(C)c1ccc(NC(=O)[C@H](CCCCN)NC(=O)OCC2c3ccccc3-c3ccccc32)cc1 [Compound 105, (S)-[5-AMINO-1-(4-TERT-BUTYL-PHENYLCARBAMOYL)-PENTYL]-CARBAMIC ACID 9H-FLUOREN-9-YLMETHYL ESTER]
- GI50 (UO-31): 1.58 µM
- CC50 (UO-31): 6.76 µM
- TGI (UO-31): 3.27 µM
- GI50 (PC-3): 1.73 µM
- CC50 (PC-3): 6.41 µM
- TGI (PC-3): 3.33 µM
- GI50 (SN12C): 13.8 µM
- CC50 (SN12C): 62.9 µM
- TGI (SN12C): 29.5 µM
- TGI (MDA-MB-231/ATCC): 26.8 µM
- GI50 (MDA-MB-231/ATCC): 11.1 µM
- CC50 (MDA-MB-231/ATCC): 64.7 µM
- GI50 (HT29): 0.733 µM
- CC50 (HT29): > 100 µM
- TGI (HOP-62): 3.87 µM
- GI50 (HOP-62; Homo sapiens): 2.18 µM
- CC50 (HOP-62; [1]): 6.85 µM
- GI50 (UACC-62): 13.7 µM
- CC50 (UACC-62): 58.2 µM
- TGI (UACC-62): 28.2 µM
- GI50 (MALME-3M): 15.6 µM
- CC50 (MALME-3M): 89.5 µM
- TGI (MALME-3M): 37.4 µM
- TGI (BT-549): 50.6 µM
- GI50 (BT-549): 25.3 µM
- CC50 (BT-549): > 100 µM
- GI50 (SK-MEL-5; Homo sapiens): 1.54 µM
- TGI (SK-MEL-5): 2.94 µM
- GI50 (M14): 1.77 µM
- CC50 (M14): 6.55 µM
- TGI (M14): 3.40 µM
- CC50 (IGROV1; Homo sapiens, IGROV-1): 6.97 µM
- TGI (IGROV1): 3.11 µM
- GI50 (K-562; Homo sapiens, K562): 1.39 µM
- TGI (K-562): 3.32 µM
- TGI (HCT-116): 3.35 µM
- GI50 (HCT-116; Homo sapiens): 1.53 µM
- LC50 (concentration killing 50% of cells) (HCT-116; Homo sapiens): 7.3 µM
- TGI (HCT-15): 24.4 µM
- GI50 (HCT-15): 11.1 µM
- CC50 (HCT-15): 53.9 µM
- GI50 (SW-620): 2.49 µM
- CC50 (SW-620): 21.7 µM
- TGI (SW-620): 6.24 µM
- TGI (HOP-92): 3.08 µM
- GI50 (HOP-92): 1.34 µM
- CC50 (HOP-92): 7.1 µM
- GI50 (SK-MEL-28): 12.3 µM
- CC50 (SK-MEL-28): 50.2 µM
- TGI (SK-MEL-28): 24.8 µM
- GI50 (SK-OV-3): 1.85 µM
- CC50 (SK-OV-3): 5.99 µM
- TGI (SK-OV-3): 3.33 µM
- GI50 (CCRF-CEM): 1.69 µM
- CC50 (CCRF-CEM): 6.47 µM
- TGI (CCRF-CEM): 3.31 µM
- GI50 (KM12): 14.8 µM
- CC50 (KM12): 55.7 µM
- TGI (KM12): 28.7 µM
- GI50 (SNB-19; Homo sapiens): 1.6 µM
- CC50 (SNB-19; [1]): 5.68 µM
- TGI (SNB-19): 3.01 µM
- GI50 (MCF7): 0.546 µM
- CC50 (MCF7): 4.75 µM
- TGI (MCF7): 1.91 µM
- GI50 (ACHN): 15.7 µM
- CC50 (ACHN): 58.5 µM
- TGI (ACHN): 30.3 µM
- GI50 (MOLT-4; Homo sapiens): 1.66 µM
- TGI (MOLT-4): 3.42 µM
- GI50 (OVCAR-4): 1.77 µM
- CC50 (OVCAR-4): > 100 µM
- TGI (OVCAR-4): 4.25 µM
- GI50 (SF-268): 17 µM
- LC50 (SF-268): 58.3 µM
- TGI (SF-268): 31.5 µM
- GI50 (TK-10): 14.1 µM
- CC50 (TK-10): 82.9 µM
- TGI (TK-10): 34.1 µM

Structure (SMILES): Cc1ccc(NC(=O)[C@@H](CCCCN)NC(=O)Nc2ccc3c(c2)Cc2ccccc2-3)cc1 [Compound 173, (R)-6-AMINO-2-[3-(9H-FLUOREN-2-YL)-UREIDO]-HEXANOIC ACID P-TOLYLAMIDE]
- GI50 (UO-31): > 100 µM
- CC50 (UO-31): > 100 µM
- TGI (UO-31): >100 µM
- GI50 (PC-3): 2.78 µM
- CC50 (PC-3): 44.5 µM
- TGI (PC-3): 11.0 µM
- GI50 (SN12C): 1.17 µM
- CC50 (SN12C): 5 µM
- TGI (SN12C): 2.41 µM
- TGI (MDA-MB-231/ATCC): 2.57 µM
- GI50 (MDA-MB-231/ATCC): 1.26 µM
- CC50 (MDA-MB-231/ATCC): 5.24 µM
- TGI (HT29): >100 µM
- GI50 (HT29): 3.64 µM
- CC50 (HT29): > 100 µM
- TGI (HOP-62): 3.79 µM
- GI50 (HOP-62; Homo sapiens): 1.88 µM
- GI50 (UACC-62): 1.15 µM
- CC50 (UACC-62): 6.52 µM
- TGI (UACC-62): 2.74 µM
- GI50 (MALME-3M): 1.55 µM
- CC50 (MALME-3M): 8.23 µM
- TGI (MALME-3M): 3.57 µM
- TGI (BT-549): 26.9 µM
- GI50 (BT-549): 11.7 µM
- CC50 (BT-549): 61.6 µM
- GI50 (SK-MEL-5; Homo sapiens): 1.03 µM
- CC50 (SK-MEL-5; [1]): 68.3 µM
- TGI (SK-MEL-5): 26.5 µM
- GI50 (M14): 3.43 µM
- CC50 (M14): > 100 µM
- TGI (M14): 11.4 µM
- GI50 (IGROV1; Homo sapiens, IGROV-1): 3.56 µM
- CC50 (IGROV1; Homo sapiens, IGROV-1): 81 µM
- TGI (IGROV1): 17.9 µM
- GI50 (K-562; Homo sapiens, K562): 1.67 µM
- CC50 (K-562; Homo sapiens, K562, read-out: LC50 (the source's name)): > 100 µM
- TGI (HCT-116): 4.40 µM
- GI50 (HCT-116; Homo sapiens): 2.16 µM
- TGI (HCT-15): 87.8 µM
- GI50 (HCT-15): 23.9 µM
- CC50 (HCT-15): > 100 µM
- GI50 (SW-620): 1.67 µM
- CC50 (SW-620): 6.12 µM
- TGI (SW-620): 3.19 µM
- TGI (HOP-92): 5.13 µM
- GI50 (HOP-92): 1.37 µM
- CC50 (HOP-92): 38.5 µM
- GI50 (SK-MEL-28): 1.43 µM
- CC50 (SK-MEL-28): 5.43 µM
- TGI (SK-MEL-28): 2.79 µM
- GI50 (SK-OV-3): 1.61 µM
- CC50 (SK-OV-3): 5.88 µM
- TGI (SK-OV-3): 3.08 µM
- GI50 (CCRF-CEM): 1.97 µM
- CC50 (CCRF-CEM): > 100 µM
- TGI (CCRF-CEM): 5.15 µM
- GI50 (KM12): 1.31 µM
- CC50 (KM12): 5.07 µM
- TGI (KM12): 2.57 µM
- GI50 (SNB-19; Homo sapiens): 1.59 µM
- TGI (SNB-19): 3.21 µM
- GI50 (MCF7): 1.45 µM
- CC50 (MCF7): 5.29 µM
- TGI (MCF7): 2.77 µM
- GI50 (ACHN): 12.2 µM
- CC50 (ACHN): 54.7 µM
- TGI (ACHN): 25.8 µM
- GI50 (MOLT-4; Homo sapiens): 1.93 µM
- CC50 (MOLT-4; [1]): 17.5 µM
- TGI (MOLT-4): 4.43 µM
- GI50 (OVCAR-4): 9.3 µM
- CC50 (OVCAR-4): > 100 µM
- TGI (OVCAR-4): 68.8 µM
- GI50 (SF-268): 7.37 µM
- LC50 (SF-268): 51 µM
- TGI (SF-268): 21.8 µM
- GI50 (TK-10): 3.59 µM
- CC50 (TK-10): 55.4 µM
- TGI (TK-10): 17.6 µM
